From PubChem BioAssay AID488890 (Southern Research Specialized Biocontainment Screening …, 2010)
Results filed as inconclusive are left out. The source made the active and inactive calls. No rule for the calls is given here.

System: Mycobacterium tuberculosis non-replicating, growth inhibition
Test: growth inhibition of non-replicating M. tuberculosis (AID 488890)

SMILES | IC50
O=C(c1ccccc1)C1CN(Cc2ccccc2)CCC1(O)c1ccccc1 (stereo not given) | 3.82 µM
O=C(NCCc1c[nH]c2ccccc12)c1cc2ccccc2oc1=O | 4.78 µM
Cc1ccc(C)c(-c2nnc(NC(=O)c3ccc([N+](=O)[O-])o3)o2)c1 | 0.46 µM
COC(=O)[C@@H](NC(=O)c1cc(COc2cncc(Cl)c2)on1)c1ccccc1 | 5.58 µM
CCOc1ccc(-c2nc3ccccc3c(=O)o2)cc1 | 6.27 µM
CC(C)OC(=O)C(C)Oc1ccc(C(=O)NCCc2ccccc2)cc1 (stereo not given) | 11.6 µM (inactive)
O=C(N/N=C\c1ccco1)c1cncc(Br)c1 | 38.1 µM (inactive)
Cc1cc(N2CCC(C)CC2)nc(NCc2ccccc2)n1 | 16.4 µM (inactive)
Cc1ccc(C(=O)N/N=C\c2ccc(-c3ccc(Cl)cc3)o2)cn1 | 7.02 µM
Nc1ccc(Br)c2cccnc12 | 15.8 µM (inactive)
Cc1nc(C)c(/C(O)=C/c2nc3ccccc3oc2=O)s1 | 1.07 µM
Cc1ccc(CSCCNC(=O)c2cccc([N+](=O)[O-])c2)cc1 | 18.4 µM (inactive)
CCOC(=O)c1c(NC(=O)COC(=O)c2ccccn2)sc2c1CCC2 | 7.87 µM
O=C(N/N=C/C=C/c1ccccc1)c1ccccn1 | 7.93 µM
COC(=O)CCc1nc2c(C#N)c(-c3ccc(Cl)cc3)ccn2n1 | 24.3 µM (inactive)
CCOC(=O)c1cc([N+](=O)[O-])c([N+](=O)[O-])cc1NC(C)=O | 2.44 µM
O=C(Oc1cccc2cccnc12)c1cccc(-n2cnnn2)c1 | 22.9 µM (inactive)
O=C(CCc1ccccc1F)N1CCN(c2ccccc2)CC1 | 2.08 µM
Cc1ccc2c(c1)c(C1=c3ccccc3=NC1=O)c(O)n2C | 4.42 µM
COc1cccc(F)c1C(C[N+](=O)[O-])c1c(N)n(C)c(=O)n(C)c1=O (stereo not given) | 7.59 µM
c1ccc(C[C@H]2CNCCN2CCCCC2CCCCC2)cc1 | 17.7 µM (inactive)
CCOC(=O)c1ccsc1NC(=O)CCS(=O)(=O)c1ccccc1 | 33.8 µM (inactive)
COc1ccc(OCCOC(=O)c2cccs2)cc1 | 27.6 µM (inactive)
CCCCCCC1CC(C)(C(=O)CNc2nncs2)OC1=O (stereo not given) | 20.3 µM (inactive)

SMILES | IC50
COc1ccccc1NC(=O)CCN1CCN(c2ccc(Cl)cc2)CC1 | 24.2 µM (inactive)
CC1=C/C(=N\OS(=O)(=O)c2ccccc2)C(C)=CC1=O | 0.66 µM
CCC(C)n1nnc2c(=O)oc3ccccc3c21 (stereo not given) | 5.63 µM
Cn1c(SCc2c(F)cccc2Cl)nc2c(c1=O)SCC2 | 28.2 µM (inactive)
COc1ccc(OCCOC(=O)CCS(=O)(=O)c2ccc(C)cc2)cc1 | 24.1 µM (inactive)
Cc1ccc(NC(=O)COC(=O)CCc2c[nH]c3ccccc23)cc1[N+](=O)[O-] | 4.83 µM
Nc1nc2ccccc2n1CCOc1ccccc1Cl | 7.58 µM
Cc1ccc(-c2nnc(C)c(N3CCCC3)n2)cc1 | 8.94 µM
O=C(N/N=C/C(Br)=C/c1ccccc1)c1cnccn1 | 13.1 µM (inactive)
O=C(Nc1nccs1)c1sc2ccccc2c1Cl | 14.3 µM (inactive)
Cc1ccc(/C=N/NC(=O)c2ccncc2)s1 | 1.43 µM
O=C(COC(=O)C1CC2C=CC1C2)Nc1ccccc1 (stereo not given) | 35.7 µM (inactive)
NC(N)=N/N=C/c1cccc([N+](=O)[O-])c1O | 2.01 µM
CCOC(=O)C1CCN(C(=O)COc2cc(C)c(Br)c(C)c2)CC1 | 18.3 µM (inactive)
Cc1ccc(NC(=O)C2=C(c3ccccc3)S(=O)(=O)CCS2(=O)=O)cc1 | 2.05 µM
COc1ccc([N+](=O)[O-])c(S(=O)(=O)c2ccc(Cl)cc2)n1 | 1 µM
CC(=O)c1c(C)n(C)c2ccc(OC(=O)c3ccco3)cc12 | 10.3 µM (inactive)
O=C(c1nnc(-c2ccc(Cl)cc2)o1)C1CCCC1 | 11.4 µM (inactive)
CC(NC(=O)c1cccc(F)c1)C1CC2CCC1C2 (stereo not given) | 0.16 µM
CCOC(=O)Nc1ccc2c(c1)N(C(=O)CCN1CCOCC1)c1ccccc1S2=O (stereo not given) | 3.62 µM
Cc1ccc(C(=O)N/N=C/c2cccc3ccccc23)cn1 | 5.95 µM
CCn1cc(C(=O)NC(C)C23CC4CC(CC(C4)C2)C3)cn1 (stereo not given) | 2.73 µM
Cc1ccc(CCC(=O)Nc2ccc(C)c(C)c2)o1 | 8.63 µM
Cc1ccc(CCC(=O)Nc2ccc([N+](=O)[O-])cc2)o1 | 15.1 µM (inactive)

SMILES | IC50
Cc1cc(NCCCn2ccnc2)n2ncc(-c3ccc(Cl)cc3)c2n1 | 13.1 µM (inactive)
CN1C2CCC1/C(=C/c1ccccn1)C(=O)/C2=C\c1ccccn1 | 16.3 µM (inactive)
Cc1ccc(OCC(=O)N2CCCc3ccccc32)cc1 | 6.25 µM
Cc1ccc(Nc2ccccc2N)cc1 | 2.52 µM
CCCOc1ccc(N2C(=O)CC(N3CCCC(C(=O)N4CCCC4)C3)C2=O)cc1 (stereo not given) | 30.1 µM (inactive)
CCCCC1CCC(C(=O)Nc2ccc(S(=O)(=O)Nc3nccs3)cc2)CC1 (stereo not given) | 7.7 µM
Cc1cc(O)c(-c2cc(O)c(C)cc2O)cc1O | 2.52 µM
Oc1ccc(Cl)cc1C1=NNC(c2cccs2)C1 (stereo not given) | 3.85 µM
CCOC(=O)c1csc(-c2snnc2C)n1 | 5.09 µM
CCOC(=O)c1sc(NC(=O)CCN2CCOCC2)c(C(=O)OCC)c1C | 1.73 µM
C/C(CC(=O)Nc1ccc(N(C)C)cc1)=N\NC(=O)c1ccncc1 | 0.3 µM
O=[N+]([O-])c1cncc([N+](=O)[O-])c1Nc1ccccc1Cl | 5.36 µM
CCC(=O)Nc1nc2ccccc2n1Cc1ccc(Cl)cc1 | 0.84 µM
Clc1ccc(Cc2nnc(-c3cccs3)o2)cc1 | < 0.1 µM
C=CCN1C(=O)C2(NNc3ccccc3O2)c2ccccc21 (stereo not given) | 2.25 µM
CN1CCC(O)(c2cccs2)C(C(=O)c2cccs2)C1 (stereo not given) | 2.35 µM
OC(COc1ccc2ccccc2c1Br)Cn1ccnc1 (stereo not given) | 33 µM (inactive)
CCOC(=O)c1ccc(NC(=O)NS(=O)(=O)c2ccc(C)cc2)cc1 | 3.31 µM
Cc1cc2oc3ccc(NCCCn4ccnc4)cc3c(=O)c2cc1C | 20.9 µM (inactive)
Cc1ccc(OCCCCn2ccnc2)c(Cl)c1 | 8.23 µM
CC(=O)CCC1CC(c2ccc(Cl)cc2)=NO1 (stereo not given) | 2.39 µM
Cc1[nH]n(-c2ccc(Cl)cc2)c(=O)c1N=Nc1cccnc1 | 1.37 µM
Cc1occc1-c1nnc(-c2cc([N+](=O)[O-])cc([N+](=O)[O-])c2)o1 | 1.56 µM
COC(=O)C1=C(N)OC2=C(C(=O)CC(C)(C)C2)C1c1cccnc1 (stereo not given) | 14.5 µM (inactive)

SMILES | IC50
CCC1CCc2sc(C(=O)NNC(=O)c3ccncc3)cc2C1 (stereo not given) | 1.97 µM
CC(C)Cn1c([N+](=O)[O-])nc2c1c(=O)[nH]c(=O)n2C | 5.81 µM
COc1ccc(C(CCNCc2ccc(OC(C)C)cc2)C(C)C)cc1 (stereo not given) | 10.2 µM (inactive)
Cc1cccc(NC(=O)c2ccc([N+](=O)[O-])s2)n1 | 0.52 µM
O=C(Nc1ccccc1)c1ccc(Br)o1 | 14 µM (inactive)
Cc1nc2scc(-c3ccccc3)c2c(=O)o1 | 14.8 µM (inactive)
Cc1cc(OCC(=O)Nc2ccncc2)ccc1Br | 3.47 µM
CC(C)(C)c1cc(CN2CCC(O)CC2)cc(C(C)(C)C)c1O | 6.92 µM
Cc1ccc(NC(=O)c2ccc([N+](=O)[O-])o2)cc1C | 0.28 µM
O=C(Nc1nnc(-c2ccccc2Cl)o1)c1cccnc1 | 23.2 µM (inactive)
C#CCSc1nnc(-c2cccc3ccccc23)o1 | 3.46 µM
CC(C)c1ccc(N2C(=O)NC(=O)/C(=C/C=C/c3ccco3)C2=O)cc1 | 8.65 µM
COc1ccc(C(=O)COC(=O)COc2ccc(C)c(C)c2)cc1 | 20.7 µM (inactive)
C/C(=N\NC(=O)c1ccco1)c1cc(Cl)sc1Cl | 4.89 µM
CCOC(=O)c1cc(COc2cc(Cl)cc(Cl)c2)on1 | 0.59 µM
CCCNC(=O)COC(=O)c1cc2c(=O)n3ccccc3nc2s1 | 23.6 µM (inactive)
CCOc1ccc(NC(=O)CCc2ccc(C)o2)cc1 | 7.77 µM
Fc1ccc(COc2ccc(-c3nnco3)cc2)cc1 | 10.8 µM (inactive)
CSC1=N/C(=C\c2ccc(Br)o2)C(=O)S1 | 28.7 µM (inactive)
Cc1n[nH]c(=S)n1/N=C/c1ccc(OCc2ccc(Cl)cc2Cl)cc1 | 37.5 µM (inactive)
O=C(NC1CCCCC1)c1nc2c(nnn2Cc2ccccc2Cl)c(=O)[nH]1 | 3.72 µM
Cc1ccccc1OCC(O)Cn1c(=N)n(Cc2ccccc2)c2ccccc21 (stereo not given) | 7.63 µM
O=C(Nc1nnc(C2COc3ccccc3O2)o1)c1ccc(F)cc1 (stereo not given) | 7.16 µM
CCC(C)NCCOc1ccc(C(C)(C)c2ccccc2)cc1 (stereo not given) | 10.4 µM (inactive)

SMILES | IC50
CCc1ccc(OCC(=O)Nc2ccncc2)c(Br)c1 | 6.25 µM
COc1ccc(C2=NOC(COC(=O)c3ccc4ccccc4n3)C2)cc1 (stereo not given) | 5.43 µM
CC(C)(C)NC(=O)COC(=O)c1snc(C(=O)NC2CCCCC2)c1N | 1.64 µM
O=c1[nH]c(-c2ccccn2)nc2ccccc12 | 9.66 µM
O=c1oc2ccccc2c2c1nc(C(F)(F)F)n2-c1ccccc1 | 2 µM
COc1cc(/C=N/Nc2cccc3cccnc23)cc(OC)c1O | 15.2 µM (inactive)
CC(C)(C)OC(=O)NCCc1nnc(S(=O)(=O)Cc2ccc(Cl)cc2Cl)o1 | 4.85 µM
Nc1ncnc(Oc2cccc3cccnc23)c1[N+](=O)[O-] | 4.36 µM
CCc1ccc(Cc2cnc(NC(=O)C3=NCCN3)s2)cc1 | 2.85 µM
N#Cc1ccc(N=c2ssnc2Cl)cc1 | 18.1 µM (inactive)
O=C(N/N=C/c1cc(Br)cc(Br)c1O)c1cccc(N2CCCC2=O)c1 | 4.24 µM
Cc1cc(NCc2ccccn2)n2nc(C)c(-c3ccc(Cl)cc3)c2n1 | 1.85 µM
O=C(CCNc1cccc(Cl)c1)c1ccco1 | 5.4 µM
COc1ccc(-c2nnc(SCC(C)C)o2)cc1 | 0.9 µM
O=C(Nc1nnc(-c2cc(Cl)ccc2Cl)o1)C1=COCCO1 | 22 µM (inactive)
O=C(Nc1ccc2c(c1)CCC2)c1ccc(Br)o1 | 7.88 µM
C=CCn1c(O)c(C2=c3ccccc3=NC2=O)c2ccccc21 | 2.68 µM
Nc1nc2ccccc2n1C(=O)c1ccc(F)cc1 | 13.2 µM (inactive)
COc1ccc2c3c(cccc13)OCC2=O | 25.9 µM (inactive)
Nc1ccccc1C#CC(=O)c1ccccc1 | < 0.1 µM
O=C(O)c1ccc(CN2C(=O)CSC2=S)cc1 | 9 µM
CCOc1ccccc1OC(=O)c1cc2ccccc2oc1=O | 21.5 µM (inactive)
c1ccc(Cc2nnc(-c3ccccc3)o2)cc1 | 0.19 µM
Cc1c(C(=O)N(C)C)sc2nc(-c3ccccn3)[nH]c(=O)c12 | 32.7 µM (inactive)
